Activity calls are given as the source filed them. The calls are words filed in the database; no cut-off is given here.

For 26 compounds, IC50, inhibition and Drug uptake results are on record in ChEMBL document CHEMBL2390877, “Structural requirements for inhibitory effects of bisphenols on the activity of the sarco/endoplasmic reticulum calcium ATPase” (Bioorg Med Chem, 2013).

Data set [1] can be described thus: Inhibition of rabbit skeletal muscle sarco/endoplasmic reticulum calcium ATPase assessed as inhibition of ATP hydrolysis by spectrophotometric analysis. Also on record: species or system Oryctolagus cuniculus.
For another data set, the species on record is Homo sapiens. The data set is described as follows: Inhibition of sarco/endoplasmic reticulum calcium ATPase in human GM08333 cells assessed as inhibition of calcium ion uptake at 50 uM measured for 1 min by Fura-2AM staining assay. Format: cell-based.
The next data set deals with Serum. In words: Drug uptake in human serum. Format: ADME, cell-free.

On to `CC(c1ccc(O)cc1)c1ccc(O)cc1`, for which, in data set [1] (read-out: IC50), the IC50 – broadly, the point on the concentration scale where inhibition reaches its midpoint – turned out to be 90 µM.

As for `CC(C)c1cc(C(C)(C)c2ccc(O)c(C(C)C)c2)ccc1O`, in data set [1] (read-out: IC50), the IC50 is 3.4 µM. In the case of `CC(C)(c1cc(N)c(O)c(N)c1)c1cc(N)c(O)c(N)c1`, the IC50 result in data set [1] is reported as “Not Active”.

With `CC(C)(c1cc(Br)c(OCC2CO2)c(Br)c1)c1cc(Br)c(OCC2CO2)c(Br)c1` (stereo not drawn), in data set [1], the IC50 entry was “Not Active”. Regarding `CC(C)(c1ccc(O)cc1)c1ccc(O)cc1` [BISPHENOL A], the IC50 in data set [1] (read-out: IC50) is 140 µM. On the same count and under the same terms, the value for `CC(CCC(=O)O)(c1cc(Cl)c(O)c(Cl)c1)c1cc(Cl)c(O)c(Cl)c1` was 25 µM.

Take `Nc1ccc(C2(c3ccc(N)cc3)CCCCC2)cc1`: the IC50 result in data set [1] is listed as “Not Active”.

`Nc1ccc(C(c2ccc(N)cc2)(C(F)(F)F)C(F)(F)F)cc1`: the half-maximal inhibitory concentration (IC50) entry in data set [1] was “Not Active”. Regarding `CC(C)(c1ccc(O)c(-c2ccccc2)c1)c1ccc(O)c(-c2ccccc2)c1`, in data set [1] (read-out: IC50), the IC50 is 91 µM. Also, the inhibition result in the data set listed under Homo sapiens was “Active”. As to `Nc1cc(C(c2ccc(O)c(N)c2)(C(F)(F)F)C(F)(F)F)ccc1O`, the IC50 entry in data set [1] is recorded as “Not Active”. On to `Oc1ccc(C2(c3ccc(O)cc3)CCCCC2)cc1`, for which, in data set [1] (read-out: IC50), the IC50 was 27 µM. For `CC(C)(C)c1cc(Cc2cc(C(C)(C)C)c(O)c(C(C)(C)C)c2)cc(C(C)(C)C)c1O`, the IC50 in data set [1] (read-out: IC50) is 16 µM. Still for that read-out and setting: next, `Oc1c(F)cc(C(c2cc(F)c(O)c(F)c2)(C(F)(F)F)C(F)(F)F)cc1F`: 2.8 µM.

As to `CC(C)(c1cc(Br)c(OCCO)c(Br)c1)c1cc(Br)c(OCCO)c(Br)c1`, the IC50 result in data set [1] is given as “Not Active”. On to `Cc1cc(C(C)(C)c2cc(C)c(O)c(C)c2)cc(C)c1O`, for which the IC50 in data set [1] (read-out: IC50) was determined as 2.6 µM. Same read-out and setting: next, `Cc1cc(C(C)(C)c2ccc(O)c(C)c2)ccc1O`: 24 µM. As for `CC(C)(c1ccc(O)c(C2CCCCC2)c1)c1ccc(O)c(C2CCCCC2)c1`, the 50% inhibitory concentration (IC50) in data set [1] (read-out: IC50) turned out to be 94 µM. Besides, the inhibition entry in the data set listed under Homo sapiens was “Active”. On to `C=CCc1cc(C(C)(C)c2ccc(O)c(CC=C)c2)ccc1O`, for which the IC50 in data set [1] (read-out: IC50) was determined as 2.2 µM. For the compound `O=C(c1ccc(O)cc1)c1ccc(O)cc1`, in data set [1] (read-out: IC50), the IC50 was determined as 200 µM.

As to `Oc1c(Cl)cc(Cl)cc1Cc1cc(Cl)cc(Cl)c1O`, the concentration for half-maximal inhibition (IC50) in data set [1] (read-out: IC50) was 31 µM. Moreover, the inhibition entry in the data set listed under Homo sapiens is “Active”.

Turning to `Oc1ccc(Cc2ccc(O)cc2)cc1`, in data set [1], the IC50 result was “Not Active”. `CC(C)(c1cc(Br)c(O)c(Br)c1)c1cc(Br)c(O)c(Br)c1`: the IC50 in data set [1] (read-out: IC50) is 4.7 µM. In addition, in the data set listed under Homo sapiens, the inhibition result is “Active”. The Drug uptake with Serum came to 0.3 µM.

As for `CC(C)(c1cc(Cl)c(O)c(Cl)c1)c1cc(Cl)c(O)c(Cl)c1`, the 50% inhibitory concentration (IC50) in data set [1] (read-out: IC50) stood at 5.5 µM. Also, in the data set filed under Homo sapiens, the inhibition entry is “Active”. As to `Cc1ccc(O)c(Cc2cc(C)ccc2O)c1`, the half-inhibitory concentration (IC50) in data set [1] (read-out: IC50) worked out at 300 µM.

On to `Oc1c(Cl)cc(Cl)c(Cl)c1Cc1c(O)c(Cl)cc(Cl)c1Cl` [HEXACHLOROPHENE], for which the IC50 in data set [1] (read-out: IC50) came to 4 µM. Also, in the data set filed under Homo sapiens, the inhibition result was “Active”. Turning to `Oc1ccc(C(c2ccc(O)cc2)(C(F)(F)F)C(F)(F)F)cc1`, in data set [1], the IC50 result was “Not Active”.
